Here are results for 1 compound from publication PMC2680982, “The cAMP-Dependent Protein Kinase Inhibitor H-89 Attenuates the Bioluminescence Signal Produced by Renilla Luciferase” (PLoS ONE, 2009).

The test deals with T1, RLuc8 (Renilla luciferase variant) (Renilla reniformis, UniProt P27652, A55T/C124A/S130A/K136R/A143M/M185V/M253L/S287L).
T1 construct: RLuc8 in pRSETB, purified on Ni-NTA from E. coli
T1 sequence (P27652 1-311 A55T/C124A/S130A/K136R/A143M/M185V/M253L/S287L): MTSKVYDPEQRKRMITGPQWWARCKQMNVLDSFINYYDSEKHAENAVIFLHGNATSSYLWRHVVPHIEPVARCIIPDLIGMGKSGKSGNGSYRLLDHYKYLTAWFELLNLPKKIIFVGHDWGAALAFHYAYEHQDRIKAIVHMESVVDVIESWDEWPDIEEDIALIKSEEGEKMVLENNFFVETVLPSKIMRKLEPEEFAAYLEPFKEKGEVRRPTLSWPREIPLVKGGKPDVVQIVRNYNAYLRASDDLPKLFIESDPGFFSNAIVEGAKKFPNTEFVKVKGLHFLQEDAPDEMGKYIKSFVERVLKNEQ
Description: bioluminescence inhibition of […] purified RLuc8 with coelenterazine-h titration. It counts as biochemical.

Molecules are shown by their SMILES.

`O=S(=O)(NCCNC/C=C/c1ccc(Br)cc1)c1cccc2cnccc12` [H-89, N-[2-(p-bromocinnamylamino)ethyl]-5-isoquinolinesulfonamide] gave a concentration for half-maximal inhibition (IC50) of 21 µM.

By IC50 is commonly meant the concentration that inhibits the measured activity by half. Read a high IC50 as weaker potency in that assay.
